The structures appear in SMILES notation.

One assay deals with Ba/F3 cells KRAS G12D. The assay is described as follows: Ba/F3 proliferation assay (KRAS G12D). The assay is classed as cell-based. The note with it: Mus musculus, BaF3, 72 h, AlamarBlue viability. In short, it runs like this:
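Ba/F3 cells retrovirally transduced with KRAS G12 mutant, puromycin-selected, grown IL-3-independent; seeded in RPMI-1640 + 10% FCS without IL-3. Logarithmic compound dose series in duplicate, 72 h at 37° C., AlamarBlue fluorescence as % of DMSO control; IC50 from four-parameter non-linear regression.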
(In general: Alamar Blue is a resazurin reagent that responds to reducing activity.)
`C[C@H](Oc1nc(-c2noc3c2CCC[C@@]32CCCc3sc(N)c(C#N)c32)nc2c1CCCO[C@]21CCOC1)[C@@H]1CCCN1C` [II-10] came in with an IC50 of 22 nM.

In turn, `CO[C@H]1C[C@H](n2c(=O)n(C)c3c(O[C@@H](C)[C@@H]4CCCN4C)nc(-c4onc5c4CCC[C@@]54CCCc5sc(N)c(C#N)c54)nc32)C1` [I-16] yielded an IC50 of 488 nM.

Molecule `CO[C@H]1CCN(C)[C@@H]1[C@H](C)Oc1nc(-c2onc3c2CCC[C@@]32CCCc3sc(N)c(C#N)c32)nc2c1n(C)c(=O)n2[C@@H]1CCOC1` [I-23] gave an IC50 of 10 nM.

Molecule `CCn1c(=O)n([C@@H]2CCCOC2)c2nc(-c3onc4c3CCC[C@@]43CCCc4sc(N)c(C#N)c43)nc(OC[C@@]34CCCN3C[C@H](F)C4)c21` [I-33] displayed an IC50 of 3550 nM.

In the case of `C[C@H](Oc1nc(-c2noc3c2CCC[C@@]32CCCc3sc(N)c(C#N)c32)nc2c1CN(C1COC1)C[C@]21CCOC1)[C@@H]1CCCN1C` [II-12], it took 8 nM to reach half-maximal inhibition (IC50).

In turn, `C[C@H](Oc1nc(-c2onc3c2CCC[C@@]32CCCc3sc(N)c(C#N)c32)nc2c1n(C)c(=O)n2[C@@H]1CCOC1)C12CCCN1CCC2` [I-25] came in with an IC50 of 25 nM.

Take `CCn1c(=O)n([C@@H]2CCCOC2)c2nc(-c3onc4c3CCC[C@@]43CCCc4sc(N)c(C#N)c43)nc(O[C@@H](C)C34CCCN3CCC4)c21` [I-36]: the midpoint of inhibition, the IC50, lay at 95 nM.

As for `C[C@H](Oc1nc(-c2onc3c2CCC[C@@]32CCCc3sc(N)c(C#N)c32)nc2c1ncn2[C@@H]1CCOC1)[C@@H]1CCCN1C` [I-38], 28 nM corresponded to half-maximal inhibition (IC50).

Take `C[C@H](Oc1nc(-c2onc3c2CCC[C@@]32CCCc3sc(N)c(C#N)c32)nc2c1CN(C1COC1)C[C@]21CCOC1)[C@@H]1CC[C@H](C)N1C` [I-55]: 10 nM corresponded to half-maximal inhibition (IC50).

In turn, `CO[C@H]1CCN(C)[C@@H]1[C@H](C)Oc1nc(-c2noc3c2CCC[C@@]32CCCc3sc(N)c(C#N)c32)nc2c1CN(C1COC1)C[C@]21CCOC1` [II-13] yielded an IC50 of 7 nM.

In turn, `C[C@H](Oc1nc(-c2noc3c2CCC[C@@]32CCCc3sc(N)c(C#N)c32)nc2c1CN(C1COC1)C[C@]21CCOC1)[C@@H]1CC[C@H](C)N1C` [II-17] returned an IC50 of 6 nM.

The test system of another assay is SK-CO-1 cells. The assay is described as follows: SK-CO-1 CTG proliferation assay (120 h) (CRC, G12V). The note with it: Homo sapiens. The assay is classed as cell-based. Here is the method: (§1) SK—CO-1 cells (ATCC HTB-39) are dispensed into black 384-well plates, flat and clear bottom (Greiner, PNr. 781091) at a density of 500 cells per well in 60 μl EMEM (Sigma M5650)+10% FCS (fetal calf serum, HyClone, SH30084.03). Cells are incubated overnight at 37° C. in a humidified tissue culture incubator at 5% CO2. Compounds (10 mM stock in DMSO) are added at logarithmic dose series using the ECHO acoustic liquid handler system (Beckman Coulter), normalizing for added DMSO and including DMSO controls. All compound treatments are performed in technical duplicates. For the TO time point measurement, untreated cells are analyzed at the time of compound addition. Plates are incubated for 120 h, and cell viability is measured using CellTiter-Glo luminescent cell viability reagent (Promega product code G7570). Viability (stated as percent of control) is defined as relative luminescence units RLU of each well divided by the RLU of cells in DMSO controls. IC50 values are determined from viability measurements by non-linear regression using a four-parameter model.
(§2) IC50 values of representative compounds according to the invention measured with these assays in the indicated cell lines are presented in Table 46.
`C[C@H](Oc1nc(-c2noc3c2CCC[C@@]32CCCc3sc(N)c(C#N)c32)nc2c1CCCO[C@]21CCOC1)[C@@H]1CCCN1C` [II-10] gave an IC50 of 4 nM.

The molecule `CO[C@H]1C[C@H](n2c(=O)n(C)c3c(O[C@@H](C)[C@@H]4CCCN4C)nc(-c4onc5c4CCC[C@@]54CCCc5sc(N)c(C#N)c54)nc32)C1` [I-16] showed an IC50 of 243 nM.

For `CO[C@H]1CCN(C)[C@@H]1[C@H](C)Oc1nc(-c2onc3c2CCC[C@@]32CCCc3sc(N)c(C#N)c32)nc2c1n(C)c(=O)n2[C@@H]1CCOC1` [I-23], the IC50 amounted to 6 nM.

Regarding `CCn1c(=O)n([C@@H]2CCCOC2)c2nc(-c3onc4c3CCC[C@@]43CCCc4sc(N)c(C#N)c43)nc(OC[C@@]34CCCN3C[C@H](F)C4)c21` [I-33], the midpoint of inhibition, the IC50, lay at 911 nM.

Turning to `C[C@H](Oc1nc(-c2noc3c2CCC[C@@]32CCCc3sc(N)c(C#N)c32)nc2c1CN(C1COC1)C[C@]21CCOC1)[C@@H]1CCCN1C` [II-12], the IC50 was determined as 5 nM.

In turn, `C[C@H](Oc1nc(-c2onc3c2CCC[C@@]32CCCc3sc(N)c(C#N)c32)nc2c1n(C)c(=O)n2[C@@H]1CCOC1)C12CCCN1CCC2` [I-25] yielded an IC50 of 11 nM.

In the case of `CCn1c(=O)n([C@@H]2CCCOC2)c2nc(-c3onc4c3CCC[C@@]43CCCc4sc(N)c(C#N)c43)nc(O[C@@H](C)C34CCCN3CCC4)c21` [I-36], inhibition was half-maximal at 14 nM (IC50).

Molecule `C[C@H](Oc1nc(-c2onc3c2CCC[C@@]32CCCc3sc(N)c(C#N)c32)nc2c1ncn2[C@@H]1CCOC1)[C@@H]1CCCN1C` [I-38] had an IC50 of 32 nM.

`C[C@H](Oc1nc(-c2onc3c2CCC[C@@]32CCCc3sc(N)c(C#N)c32)nc2c1CN(C1COC1)C[C@]21CCOC1)[C@@H]1CC[C@H](C)N1C` [I-55] came in with an IC50 of 6 nM.

For `CO[C@H]1CCN(C)[C@@H]1[C@H](C)Oc1nc(-c2noc3c2CCC[C@@]32CCCc3sc(N)c(C#N)c32)nc2c1CN(C1COC1)C[C@]21CCOC1` [II-13], it took 3 nM to reach half-maximal inhibition (IC50).

As for `C[C@H](Oc1nc(-c2noc3c2CCC[C@@]32CCCc3sc(N)c(C#N)c32)nc2c1CN(C1COC1)C[C@]21CCOC1)[C@@H]1CC[C@H](C)N1C` [II-17], the IC50 was 5 nM.

The next assay has as its system NCI-H727 cells. The assay is described as follows: NCI-H727 CTG proliferation assay (120 h) (lung cancer, G12V). The note with it: Homo sapiens. The assay is classed as cell-based. On the procedure:
as §1, with “NCI-H727” for “SK—CO-1”, “No. CRL-5815)” for “HTB-39)”, “RPMI ATCC-Formulation (PAN P04-18047)+10%” for “EMEM (Sigma M5650)+10%”
as §2
Turning to `C[C@H](Oc1nc(-c2noc3c2CCC[C@@]32CCCc3sc(N)c(C#N)c32)nc2c1CCCO[C@]21CCOC1)[C@@H]1CCCN1C` [II-10], the IC50 came to 7 nM.

For `CO[C@H]1C[C@H](n2c(=O)n(C)c3c(O[C@@H](C)[C@@H]4CCCN4C)nc(-c4onc5c4CCC[C@@]54CCCc5sc(N)c(C#N)c54)nc32)C1` [I-16], the IC50 came to 152 nM.

Consider `CO[C@H]1CCN(C)[C@@H]1[C@H](C)Oc1nc(-c2onc3c2CCC[C@@]32CCCc3sc(N)c(C#N)c32)nc2c1n(C)c(=O)n2[C@@H]1CCOC1` [I-23], for which half-maximal inhibition (IC50) was put at 3 nM.

In turn, `CCn1c(=O)n([C@@H]2CCCOC2)c2nc(-c3onc4c3CCC[C@@]43CCCc4sc(N)c(C#N)c43)nc(OC[C@@]34CCCN3C[C@H](F)C4)c21` [I-33] registered an IC50 of 899 nM.

On to `C[C@H](Oc1nc(-c2noc3c2CCC[C@@]32CCCc3sc(N)c(C#N)c32)nc2c1CN(C1COC1)C[C@]21CCOC1)[C@@H]1CCCN1C` [II-12], for which half-maximal inhibition (IC50) required 3 nM.

In turn, `C[C@H](Oc1nc(-c2onc3c2CCC[C@@]32CCCc3sc(N)c(C#N)c32)nc2c1n(C)c(=O)n2[C@@H]1CCOC1)C12CCCN1CCC2` [I-25] registered an IC50 of 9 nM.

`CCn1c(=O)n([C@@H]2CCCOC2)c2nc(-c3onc4c3CCC[C@@]43CCCc4sc(N)c(C#N)c43)nc(O[C@@H](C)C34CCCN3CCC4)c21` [I-36] came in with an IC50 of 21 nM.

In the case of `C[C@H](Oc1nc(-c2onc3c2CCC[C@@]32CCCc3sc(N)c(C#N)c32)nc2c1ncn2[C@@H]1CCOC1)[C@@H]1CCCN1C` [I-38], half-maximal inhibition (IC50) required 34 nM.

In turn, `C[C@H](Oc1nc(-c2onc3c2CCC[C@@]32CCCc3sc(N)c(C#N)c32)nc2c1CN(C1COC1)C[C@]21CCOC1)[C@@H]1CC[C@H](C)N1C` [I-55] had an IC50 of 3 nM.

In turn, `CO[C@H]1CCN(C)[C@@H]1[C@H](C)Oc1nc(-c2noc3c2CCC[C@@]32CCCc3sc(N)c(C#N)c32)nc2c1CN(C1COC1)C[C@]21CCOC1` [II-13] returned an IC50 of 1 nM.

In the case of `C[C@H](Oc1nc(-c2noc3c2CCC[C@@]32CCCc3sc(N)c(C#N)c32)nc2c1CN(C1COC1)C[C@]21CCOC1)[C@@H]1CC[C@H](C)N1C` [II-17], the IC50 amounted to 2 nM.

What is called IC50 is the point on the concentration scale where inhibition reaches its midpoint. Higher therefore signals weaker potency.

Source of the values: US20250019385A1, “SPIROCYCLIC ANNULATED 2-AMINO-3-CYANO THIOPHENES AND DERIVATIVES FOR THE TREATMENT OF CANCER” (Boehringer Ingelheim International GmbH, priority 2023, published 2025).
